Tests used:
[1] = target: T1, Kappa-type opioid receptor (Homo sapiens, UniProt P41145); assay: Efficacy at human kappa opioid receptor expressed in CHO cells by [35S]GTP-gamma-S binding assay relative to U50,488H; format: functional, cell-based
[2] = target: T1, Kappa-type opioid receptor; assay: Displacement of [3H]diprenorphine binding from human kappa opioid receptor expressed in CHO cells; format: cell-based
[3] = target: T1, Kappa-type opioid receptor; assay: Binding potency at human kappa opioid receptor expressed in CHO cells by [35S]GTPgammaS binding assay; format: functional, cell-based

T1 sequence (P41145 whole entry): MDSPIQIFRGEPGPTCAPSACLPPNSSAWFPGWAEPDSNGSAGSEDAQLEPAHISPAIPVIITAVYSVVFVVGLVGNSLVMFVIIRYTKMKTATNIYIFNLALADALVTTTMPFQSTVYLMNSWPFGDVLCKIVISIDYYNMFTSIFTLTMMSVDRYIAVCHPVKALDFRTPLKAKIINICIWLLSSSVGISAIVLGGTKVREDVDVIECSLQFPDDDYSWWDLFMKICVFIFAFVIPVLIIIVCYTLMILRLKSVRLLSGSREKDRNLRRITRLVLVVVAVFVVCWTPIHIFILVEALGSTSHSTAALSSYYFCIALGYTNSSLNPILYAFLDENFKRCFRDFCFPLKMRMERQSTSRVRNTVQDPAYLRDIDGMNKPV

| SMILES | Efficacy [1] | Ki [2] | EC50 [3] |
| --- | --- | --- | --- |
| COC(=O)[C@@H]1C[C@H](OC(C)=O)C(=O)[C@H]2[C@@]1(C)CC[C@H]1C(=O)O[C@H](c3ccoc3)C[C@]21C | 106% | – | – |
| CC(=O)O[C@H]1C[C@@H](COC(=O)c2ccc(F)cc2)[C@]2(C)CC[C@H]3C(=O)O[C@H](c4ccoc4)C[C@]3(C)[C@H]2C1=O | – | > 1000 nM | – |
| CC(=O)O[C@H]1C[C@@H](C=O)[C@]2(C)CC[C@H]3C(=O)O[C@H](c4ccoc4)C[C@]3(C)[C@H]2C1=O | – | > 1000 nM | – |
| CC(=O)O[C@H]1C[C@@H](c2nnnn2CCC#N)[C@]2(C)CC[C@H]3C(=O)O[C@H](c4ccoc4)C[C@]3(C)[C@H]2C1=O | – | > 1000 nM | – |
| C=CCOC[C@@H]1C[C@H](OC(C)=O)C(=O)[C@H]2[C@@]1(C)CC[C@H]1C(=O)O[C@H](c3ccoc3)C[C@]21C | – | > 1000 nM | – |
| C/C=C/C(=O)OC[C@@H]1C[C@H](OC(C)=O)C(=O)[C@H]2[C@@]1(C)CC[C@H]1C(=O)O[C@H](c3ccoc3)C[C@]21C | – | > 1000 nM | – |
| CC(=O)O[C@H]1C[C@@H](COC(=O)C2CC2)[C@]2(C)CC[C@H]3C(=O)O[C@H](c4ccoc4)C[C@]3(C)[C@H]2C1=O | 92% | 221 nM | 358 nM |
| CC(=O)O[C@H]1C[C@@H](COC(=O)c2cccc(F)c2)[C@]2(C)CC[C@H]3C(=O)O[C@H](c4ccoc4)C[C@]3(C)[C@H]2C1=O | – | > 1000 nM | – |
| CC(=O)O[C@H]1C[C@@H](COC(=O)C(NC(=O)OCC2c3ccccc3-c3ccccc32)c2ccccc2)[C@]2(C)CC[C@H]3C(=O)O[C@H](c4ccoc4)C[C@]3(C)[C@H]2C1=O (stereo not given in full) | – | > 1000 nM | – |
| CC(=O)O[C@H]1C[C@@H](COC(=O)C(C)N(C)C(=O)OCC2c3ccccc3-c3ccccc32)[C@]2(C)CC[C@H]3C(=O)O[C@H](c4ccoc4)C[C@]3(C)[C@H]2C1=O (stereo not given in full) | – | > 1000 nM | – |
| COC[C@@H]1C[C@H](OC(C)=O)C(=O)[C@H]2[C@@]1(C)CC[C@H]1C(=O)O[C@H](c3ccoc3)C[C@]21C | – | > 1000 nM | – |
| CC(=O)O[C@H]1C[C@@H](CO)[C@]2(C)CC[C@H]3C(=O)O[C@H](c4ccoc4)C[C@]3(C)[C@H]2C1=O | 107% | 43.4 nM | 20.7 nM |
| CC(=O)O[C@H]1C[C@@H](C(=O)O)[C@]2(C)CC[C@H]3C(=O)O[C@H](c4ccoc4)C[C@]3(C)[C@H]2C1=O | – | > 1000 nM | – |
| CC(=O)O[C@H]1C[C@@H](COC(=O)Cc2ccccc2)[C@]2(C)CC[C@H]3C(=O)O[C@H](c4ccoc4)C[C@]3(C)[C@H]2C1=O | – | > 1000 nM | – |
| CCOC[C@@H]1C[C@H](OC(C)=O)C(=O)[C@H]2[C@@]1(C)CC[C@H]1C(=O)O[C@H](c3ccoc3)C[C@]21C | – | > 1000 nM | – |
| CC(=O)O[C@H]1C[C@@H](COC(=O)CNC(=O)OCC2c3ccccc3-c3ccccc32)[C@]2(C)CC[C@H]3C(=O)O[C@H](c4ccoc4)C[C@]3(C)[C@H]2C1=O | – | > 1000 nM | – |
| C#CCC(=O)OC[C@@H]1C[C@H](OC(C)=O)C(=O)[C@H]2[C@@]1(C)CC[C@H]1C(=O)O[C@H](c3ccoc3)C[C@]21C | – | > 1000 nM | – |
| CC(=O)O[C@H]1C[C@@H](COCc2ccccc2)[C@]2(C)CC[C@H]3C(=O)O[C@H](c4ccoc4)C[C@]3(C)[C@H]2C1=O | – | > 1000 nM | – |
| COCCOCC(=O)OC[C@@H]1C[C@H](OC(C)=O)C(=O)[C@H]2[C@@]1(C)CC[C@@H]1C(=O)O[C@H](c3ccoc3)C[C@]21C | – | > 1000 nM | – |
| CC(=O)OC[C@@H]1C[C@H](OC(C)=O)C(=O)[C@H]2[C@@]1(C)CC[C@H]1C(=O)O[C@H](c3ccoc3)C[C@]21C | – | > 1000 nM | – |
| CC(=O)O[C@H]1C[C@@H](COC(=O)c2ccc(Br)cc2)[C@]2(C)CC[C@H]3C(=O)O[C@H](c4ccoc4)C[C@]3(C)[C@H]2C1=O | – | > 1000 nM | – |
| CC(=O)O[C@H]1C[C@@H](COC(=O)C(C)NC(=O)OCC2c3ccccc3-c3ccccc32)[C@]2(C)CC[C@H]3C(=O)O[C@H](c4ccoc4)C[C@]3(C)[C@H]2C1=O (stereo not given in full) | – | > 1000 nM | – |
| COCCOCC(=O)OC[C@@H]1C[C@H](OC(C)=O)C(=O)[C@H]2[C@@]1(C)CC[C@H]1C(=O)O[C@H](c3ccoc3)C[C@]21C | 98% | 613 nM | 210 nM |
| CC(=O)O[C@H]1C[C@@H](COC(=O)c2ccc(C)cc2)[C@]2(C)CC[C@H]3C(=O)O[C@H](c4ccoc4)C[C@]3(C)[C@H]2C1=O | – | > 1000 nM | – |

From ChEMBL document CHEMBL1139705, “Synthesis and in vitro pharmacological studies of new C(4)-modified salvinorin A analogues” (Bioorg Med Chem Lett, 2006)
